# According to EP4813463A2, “TYK2 INHIBITORS AND COMPOSITIONS AND METHODS THEREOF” (Lynk Pharmaceuticals Co. Ltd., priority 2023, dated 2024):
# Legend:
# [1] = test system: T cell transfer colitis model; test: SCID mice colitis by T cell transfer pharmacodynamics study; assay type: in vivo, C.B17-SCID mice
# Protocol: This study aimed to obtain the pharmacodynamics of the test article in T cell transfer colitis model after oral administration. For induction of colitis, naive CD4^+ T cells (CD4^+CD44^lowCD62L^high) were adoptively transferred from MHC-compatible Balb/c mice to C.B17-SCID recipients. Balb/c splenocytes were […] selected for CD4^+ T cells using the Mouse Naïve CD4^+ T Cell Isolation Kit (Cat #19765, […]), 1.5×10^6 cells in a volume of 100 µL PBS were transferred to each recipient by i.v. injection on Day 0. C.B17-SCID mice obtained from the Beijing Vital River Laboratory Animal Technology Co., Ltd. Starting on Day 0 and continuing daily through Day 32, mice (n = 8 per group) were dosed with 0 (vehicle control), 45 mg/kg PO BID compound 7A in a vehicle containing 5% DMSO, 65% PEG400, and 30% DDH2O (v/v/v).
# Each mouse was scored three times weekly for pathological features, including stool consistency, and body weight loss. Individual scores were combined to generate the DAI, the maximum score was 6. At the termination of the study, the colon was collected for measuring colon index (weight, length, and density), emptied of fecal contents opened longitudinally along the mesenteric border, and formed a Swiss-Roll from the proximal to the distal end, processed to paraffin-embedded blocks to generate 5-µm-thick sections for hematoxylin and eosin (H&E) staining. Slices were evaluated in a blinded manner and histological scores were assessed based on the following parameters: inflammation, epithelial defects, crypt atrophy, dysplasia, and the area affected by dysplasia.
# [2] = test system: Anti-CD40-induced colitis; test: SCID mice colitis by anti-CD40-driven pharmacodynamics study; assay type: in vivo, C.B17-SCID mice; conditions: for Colon density / Colon length (cm) / Colon weight: Day 5, mean ± SEM, n = 10
# Protocol: This study aimed to obtain the pharmacodynamics of the test article in colitis model by Anti-CD40-driven after oral administration. C.B17-SCID mice obtained from the Zhejiang Vital River Laboratory Animal Technology Co., Ltd. Starting on Day -1 and continuing daily through Day 4, mice (n = 10 per group) were dosed with 0 (vehicle control), 15, 45, or 100 mg/kg PO BID compound 7A in vehicle containing 5% DMSO, 65% PEG400, and 30% DDH2O (v/v/v). In addition, on Day 0, 30 minutes after administration, colitis was induced with a single intraperitoneal injection of 200 µL of anti-CD40 mAb (BE0016-2, BioXcell) in DPBS, the Sham group mice were intraperitoneally injected with 200 µL of DPBS.
# Each mouse was scored daily for pathological features, including stool consistency, presence of blood stool, and body weight loss. Individual scores were combined to generate the Disease Activity Index (DAI) which was calculated daily for each mouse, the maximum score was 12. On Day 5, all animals were euthanized, colon was collected for measuring colon index (weight, length, and density).
# [3] = Brain pharmacokinetic studies in rats; assay type: in vivo, Sprague-Dawley rats; conditions: for half-life / Kp / AUC: rats, iv, 3 mg/kg, solution; for Kp: read-out: Brain AUC/Systemic AUC; for brain exposure in Rats: result in words
# [4] = Pharmacokinetic study in dogs; assay type: in vivo; conditions: dog, plasma; Beagle dogs, intravenous, 2 mg/kg, solution
# Protocol: (§1) Pharmacokinetic profiles of test articles were evaluated in fasted mouse, Sprague-Dawley rats and Beagle dogs. After dosing, blood samples were collected at each time point. For IV injection group, time points were set at 5, 15, 30 min, and then 1, 2, 4, 8 and 24 hours after dosing. For oral gavage group,#time points were set at 15, 30 min, and then 1, 2, 4, 8, and 24 hours. Blood was collected into appropriately labeled tubes containing K2EDTA as the anticoagulant. Plasma was obtained within 1 hours of blood collection by centrifugation at 8000×g and 4 °C for 6 minutes, and then stored at -20 °C until analyzed by LC/MS/MS for quantification. PK parameter values, including, but not necessarily limited to, the maximum plasma concentrations (Cmax), the time to reach the maximum concentrations (Tmax), and the area under the plasma concentration vs. time curve (AUC) from time zero to 24-hour (AUC0-24h) were determined using WinNonlin program. Table 17. Pharmacokinetic Parameters in Beagle dogs by Intravenous Administration
# [5] = Pharmacokinetic study in mice; assay type: in vivo; conditions: mouse, plasma, solution
# Protocol: as §1
# [6] = 45mpk PO BID, Day 0 through Day 32, mean ± SEM, n = 8
# [7] = Sprague-Dawley, rat, systemic (plasma)
# [8] = Sprague-Dawley, rat, systemic (plasma), read-out: AUC
compound,measurement,setting,value
"[2H]C([2H])([2H])NC(=O)c1cnc(NC(=O)C2CC2)cc1Nc1cnn2ccc([C@H](O)C(F)(F)F)c(OC)c12 [Example 7A, (S)-6-(cyclopropanecarboxamido)-4-((4-methoxy-5-(2,2,2-trifluoro-1-hydroxyethyl)pyrazolo[1,5-a]pyridin-3-yl)amino)-N-(methyl-d3)nicotinamide]",Colon density,[1]; [6],27.66 ± 1.24 mg/cm
same,Colon length (cm),[1]; [6],7.94±0.32 cm
same,Colon weight,[1]; [6],218.38 ± 10.13 mg
same,Spleen index,[1]; [6],3.08 ± 0.36 mg/g
same,disease-related weight loss,"[1]; FIG. 2. A, result in words",inhibiting
same,DAI scores,"[1]; FIG. 2. B, result in words",inhibiting
same,absolute value of Th1 and Th17 cells,"[1]; FIG. 3. B-C, result in words",significantly reduced
same,percentage value of CD4^+T cells and Th17 cells in whole blood,"[1]; FIG. 3. D-E, result in words",significantly reduced
same,CD4^+T cells in colonic tissue,"[1]; FIG. 4. A, result in words",significantly reduced
same,colonic histopathological changes,"[1]; FIG. 4. B, result in words",inhibiting
same,colitis symptoms,"[1]; orally twice daily, result in words",alleviated colitis symptoms
same,effect on Anti-CD40-induced colitis,"[2]; 15, 45, or 100 mg/kg PO BID, result in words",significant protective effect
same,Colon density,[2]; 15mpk PO BID,46.99 ± 2.71 mg/cm
same,Colon length (cm),[2]; 15mpk PO BID,5.61±0.20 cm
same,Colon weight,[2]; 15mpk PO BID,260.20 ± 10.58 mg
same,Colon density,[2]; 45mpk PO BID,37.00 ± 1.36 mg/cm
same,Colon length (cm),[2]; 45mpk PO BID,6.34±0.13 cm
same,Colon weight,[2]; 45mpk PO BID,234.20 ± 9.04 mg
same,Colon density,[2]; 100mpk PO BID,29.23 ± 0.91 mg/cm
same,Colon length (cm),[2]; 100mpk PO BID,7.15±0.15 cm
same,Colon weight,[2]; 100mpk PO BID,208.40 ± 5.53 mg
same,body weight loss,"[2]; FIG. 1. A, result in words",reduction
same,DAI score,"[2]; FIG. 1. B, result in words",reduction
"COC(=O)c1cnc(NC(=O)C2CC2)cc1Nc1nn(C)c2ccc([C@H](OC)C(F)(F)F)c(OC)c12 [Example 45B, Methyl (S)-6-(cyclopropanecarboxamido)-4-((4-methoxy-1-methyl-5-(2,2,2-trifluoro-1-methoxyethyl)-1H-indazol-3-yl)amino)nicotinate]",half-life,"[3]; Sprague-Dawley, rat, brain",2.23 h
same,Kp,"[3]; Sprague-Dawley, rat, brain",0.96
same,half-life,[3]; [7],2.28 h
same,AUC,[3]; [8],1280 ng·h/mL
same,AUC,[3]; brain,1235 ng·h/g
same,brain exposure in Rats,[3],good brain exposure
"COC(=O)c1cnc(NC(=O)C2CC2)cc1Nc1nn(C)c2ccc([C@H](O)C(F)(F)F)c(OC)c12 [Example 48A, Methyl (S)-6-(cyclopropanecarboxamido)-4-((4-methoxy-1-methyl-5-(2,2,2-trifluoro-1-hydroxyethyl)-1H-indazol-3-yl)amino)nicotinate]",half-life,"[3]; Sprague-Dawley, rat, brain",2.04 h
same,Kp,"[3]; Sprague-Dawley, rat, brain",0.19
same,half-life,[3]; [7],1.62 h
same,AUC,[3]; [8],1530 ng·h/mL
same,AUC,[3]; brain,288 ng·h/g
same,brain exposure in Rats,[3],good brain exposure
"[2H]C([2H])([2H])NC(=O)c1cnc(NC(=O)C2CC2)cc1Nc1nn(C)c2ccc([C@H](OC([2H])([2H])[2H])C(F)(F)F)c(OC)c12 [Example 55A, (S)-6-(cyclopropanecarboxamido)-4-((4-methoxy-1-methyl-5-(2,2,2-trifluoro-1-(methoxy-d3)ethyl)-1H-indazol-3-yl)amino)-N-(methyl-d3)nicotinamide]",AUC,[4],9980 ng·h/mL
same,Vd,[4],0.678 L/kg
same,clearance,[4],3.52 mL/min/kg
same,half-life,[4],3.64 h
same,AUC,"[5]; intravenous, 3 mg/kg",7600 ng·h/mL
same,Vd,"[5]; intravenous, 3 mg/kg",0.819 L/kg
same,clearance,"[5]; intravenous, 3 mg/kg",6.57 mL/min/kg
same,half-life,"[5]; intravenous, 3 mg/kg",2.57 h
same,AUC,"[5]; oral, 5 mg/kg",7490 ng·h/mL
same,Cmax,"[5]; oral, 5 mg/kg",2300 ng/mL
same,bioavailability,"[5]; oral, 5 mg/kg",59.2%
same,half-life,"[5]; oral, 5 mg/kg",2.38 h
